{
  "source": "patent US20050170331A1",
  "about": "“Method for characterizing metabolic stability of a drug” (priority 2003, published 2005)",
  "tested_on": "hepatocytes",
  "assay": "Metabolic stability in hepatocyte suspension by hyperpolarised 13C NMR",
  "format": "in vitro ADME",
  "settings": "hepatocytes 1·10^6 cells/ml in RPMI 1640, 37° C., 30 s incubation, drug candidate approximately 0.46 mM, DNP hyperpolarised",
  "method": "The concentration of hepatocytes was 1·10^6 cells/ml in a suspension of RPMI 1640 medium. 1 ml of this suspension was placed in a 10 mm NMR tube with a bottom plug, reducing the active volume to […]. The tube was placed in a 9.4 T magnet with the temperature of the probe equilibrated to 37° C. A tube was connected to the bottom of the NMR tube to allow for injection of the hyperpolarised drug candidate solution into the cell suspension.\n^13C2-sodiumfumerate was diluted in water and mixed (1:1 w/w) with a glycerol solution containing 40 mM trityl. The liquid sample was frozen as droplets in liquid nitrogen. 84.3 mg of this sample (3.84 mg of ^13C2-sodiumfumerate) was placed in the polariser and hyperpolarised for two hours at 93.945 GHz and 100 mW (DNP method). The dissolution was performed with Tris buffer containing 100 mg/l EDTA (pH 7.4, 20 mM, 6 ml). The active dissolution volume was 5.5 ml with full recovery of the sample. A 1 ml syringe was filled completely (volume: 1100 μl) with the dissolved ^13C2-sodiumfumerate solution, a total of 100 μl of this solution was quickly transferred to the liquid-NMR magnet and injected into the cell suspension, resulting in a total drug candidate concentration of approximately 0.46 mM. […]",
  "data": [
    {"smiles": "O=C([O-])/C=C/C(=O)[O-].[Na+].[Na+]", "note": "[^13C2-sodiumfumerate]", "values": [
      {"measurement": "metabolites of the drug candidate observed in the 13C NMR spectrum of the mixture", "value": "two different metabolites of the drug candidate, namely succinate and malate"}
    ]}
  ]
}
